{
  "source": "patent US20260183411A1",
  "about": "“TARGETING SORTILIN” (priority 2024, published 2026)",
  "molecules": {"B1": {"name": "PRGN_scr (peptide)", "peptide": "{FAM}-QRLARLPRDLLAWPPAD-OH", "notes": "also called negative control peptide"}},
  "key": {"[1]": {"assay": "Murine plasma stability assay", "type": "in vitro ADME", "settings": "mouse, 2 μM, 37° C., read-out: Murine plasma stability assay, T1/2", "method": "Frozen plasma was thawed at 37° C. and centrifuged at 4000 rpm to remove any clots and transferred to 96-well reaction plates by WuXi AppTec. Test compounds were added to the reaction plate at a final concentration of 2 μM and either stopped immediately or incubated at 37° C. for 5 minutes, 10 minutes, 30 minutes, 60 minutes, or 120 minutes. At the end of incubation, stop solution consisting of 200 ng/mL tolbutamide and 200 ng/mL labetalol in ACN was added to precipitate protein and mixed thoroughly. Samples were then transferred to a bioanalysis plate and shaken for 10 minutes prior to HPLC-MS/MS analysis of percent remaining compound.\nTable 14 tabulates the plasma stability for each of the three PDCs tested."}, "MDA-MB-231 xenograft": {"tested_on": "MDA-MB-231 xenograft", "assay": "MDA-MB-231 murine xenograft efficacy model", "type": "in vivo, mouse", "method": "Murine xenograft experiments were conducted at WuXi AppTec and/or Charles River Laboratories and the care and use of animals was conducted in accordance with the regulations of the Association for Assessment and Accreditation of Laboratory Animal Care (AAALAC). MDA-MB-231 tumor cells (ATCC, Manassas, VA, cat #HTB-26) were grown and maintained in L15 medium supplemented with 10% heat inactivated fetal bovine serum, 1% Antibiotic-Antimycotic, and L-glutamine (2 mM) at 37° C. in an atmosphere in 5% CO2, 95% air. BALB/c Nude, female, 6-8 weeks, weighing approximately 18-22 g were purchased from Vital River Laboratory Animal Technology Co., LTD. Mice were inoculated subcutaneously at the right flank with MDA-MB-231 tumor cells (e.g., triple negative breast cancer cells) (10×10^6) in 0.2 mL of PBS with Matrigel (1:1) for tumor development. Animals were randomized and treatment was started when the average tumor volume reached approximately 150-200 mm^3 for the efficacy study. Dosing volume was adjusted based on body weight and was administered at 10 mL/Kg. […] Free MMAE payload was also tested, and similarly dissolved in 25 mM Histidine 10% sucrose pH 7 and one or more of the following doses, 0.6, 0.06 mg/kg, were administered to the mice i.v. at a QW×4 schedule. Tumor sizes were measured twice weekly in two dimensions using a caliper, and the volume in mm^3 calculated using the formula: V=0.5 a×b^2, where a and b are the long and short diameters of the tumor, respectively. TGI was calculated for each group using the formula: TGI (%)=[1−(Ti−T0)/(Vi−V0)]×100; where Ti is the average tumor volume of a treatment group on a given day, TO is the average tumor volume of the treatment group on the first day of treatment, Vi is the average tumor volume of the vehicle control group on the same day with Ti, and V0 is the average tumor volume of the vehicle group on the first day of treatment.\nTo characterize the effects of the MMAE payload alone, we included free MMAE at molar equivalency to PDCs, and tested at 0.6 and 0.06 mg/kg, as separate arms.\nTo characterize the effects of the MMAE payload alone, we included free MMAE at molar equivalency to PDCs, and tested at 0.6 mg/kg."}, "[2]": {"assay": "Murine hematotoxicity assay", "type": "in vivo, mouse", "settings": "3 mg/kg i.v. QW×4, BALB/c mice", "method": "(§1) Murine hematotoxicity experiments were conducted at Charles River Laboratories and the care and use of animals was conducted in accordance with the regulations of the Association for Assessment and Accreditation of Laboratory Animal Care (AAALAC). Wild type BALB/c, female, 7-8 weeks, weighing approximately 18-22 g were randomized and dosed intravenously with control or test articles at a QW×4 schedule. Dosing volume was adjusted based on body weight and was administered at 10 mL/Kg. PDCs were dissolved in 25 mM Histidine 10% sucrose pH 7 and 3 mg/kg was administered. Free MMAE payload was also tested, and similarly dissolved in 25 mM Histidine 10% sucrose pH 7 and administered to the mice at a dose of […] by i.v. injection at a QW×4 schedule. 3 days following each dose, 150 μL of whole blood was collected via submandibular method and placed in K2 EDTA tubes stored on ice. Blood neutrophil counts were performed on the day of collection by IDEXX labs. Body weights were recorded twice a week until study endpoint.\nas §1, with “As outlined in the material” for “Murine hematotoxicity experiments were conducted at Charles River Laboratories”, “methods” for “the care and use”, “Example 1, wild” for “animals was conducted in accordance with the regulations of the Association for Assessment and Accreditation of Laboratory Animal Care (AAALAC). Wild”, “PDCs were dissolved in 25 mM Histidine 10% sucrose pH 7 and 3 mg/kg was administered.” left out"}, "Cyno SORT1": {"target": "Cyno SORT1", "assay": "SPR binding, Cyno SORT1", "settings": "unconjugated peptide w/conjugation handles", "method": "SPR analysis was performed on Series S CM5 chips (Cytiva) using a Biacore 8K instrument (Cytiva). Sensorgrams were double-referenced by subtracting the response on both a reference flow cell and a blank sample. Human SORT1 (78-755)-His (Acrobiosystems), human SORT1 (78-755)-His(GenScript), mouse SORT1 (76-753)-His (R&D Systems), rat SORT1 (76-752)-His (GenScript), and cyno SORT1 (76-753)-His (GenScript) were diluted to 20-60 μg/mL in 10 mM sodium acetate pH 4.5 buffer and immobilized onto Series S CM5 chips using amine coupling at a flow rate of 10 μL/min for 45-100 s.\nFor the single-cycle kinetics analysis runs, a running buffer of 1×PBS pH 7.4, 0.005% Tween-20 was used. Ten start-up cycles and a blank cycle preceded each analysis run. […] The kinetic rate constants (ka and kd) and the equilibrium binding constant (Kd) were calculated using a 1:1 kinetic binding model on the Biacore Insight Evaluation Software (Cytiva).\nSPR analysis was performed on Series S CM5 chips (Cytiva) using a Biacore 8K instrument (Cytiva). […] The kinetic rate constants (ka and […]) and the equilibrium binding constant (Kd) were calculated using a 1:1 kinetic binding model on the Biacore Insight Evaluation Software (Cytiva). […] The SORT1 affinities of the conjugates were determined to be peptide 2 conjugate >peptide 1 conjugate >peptide 3 conjugate."}, "GAPDH mRNA [3]": {"tested_on": "GAPDH mRNA", "assay": "GAPDH mRNA knockdown in HEK293 cells (RT-qPCR)", "type": "cell-based", "method": "(§2) These GAPDH siRNA-peptide conjugates were then evaluated in HEK293 cells and the neuronal cell line, neuro2A."}, "GAPDH mRNA [4]": {"tested_on": "GAPDH mRNA", "assay": "GAPDH mRNA knockdown in differentiated Neuro-2a cells (RT-qPCR)", "type": "cell-based", "method": "as §2"}, "[5]": {"target": "T1, SORT1 (Sortilin), Acrobiosystems SON-H52H5 (human, UniProt Q99523 78-755, biotinylated 1:1 with NHS-PEG4 Biotin when immobilised in the protein-loaded GCI format)", "T1 construct": "Used in FP, GCI and the peptide microarray; also called SORT1-Ag; SORT1 antigen", "T1 sequence (looked up)": "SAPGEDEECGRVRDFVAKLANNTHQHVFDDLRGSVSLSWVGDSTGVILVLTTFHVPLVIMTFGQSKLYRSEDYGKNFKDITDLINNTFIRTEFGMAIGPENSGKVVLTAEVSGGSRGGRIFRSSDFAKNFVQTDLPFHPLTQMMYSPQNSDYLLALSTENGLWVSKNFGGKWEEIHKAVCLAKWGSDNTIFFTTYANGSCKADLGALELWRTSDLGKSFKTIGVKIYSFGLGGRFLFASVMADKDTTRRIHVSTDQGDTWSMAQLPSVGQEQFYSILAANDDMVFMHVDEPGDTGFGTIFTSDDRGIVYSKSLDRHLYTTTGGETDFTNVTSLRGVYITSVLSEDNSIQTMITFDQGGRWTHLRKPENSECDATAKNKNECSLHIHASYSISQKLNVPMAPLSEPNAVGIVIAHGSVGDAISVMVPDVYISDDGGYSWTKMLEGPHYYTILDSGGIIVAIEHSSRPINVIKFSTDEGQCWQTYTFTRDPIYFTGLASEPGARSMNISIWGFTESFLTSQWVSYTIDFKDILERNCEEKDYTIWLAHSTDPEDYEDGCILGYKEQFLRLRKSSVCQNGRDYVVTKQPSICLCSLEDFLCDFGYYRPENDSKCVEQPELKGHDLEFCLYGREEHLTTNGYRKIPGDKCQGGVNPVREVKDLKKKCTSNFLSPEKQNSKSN", "assay": "fluorescence polarization, direct titration of the FAM-labelled peptide with SORT1", "experimental": "A 12-point, two-fold dilution series of target protein was prepared in a V-bottom 96-well plate for a total volume of 25 μL.\nA 10× working solution of FAM-labeled peptides was prepared in the FP buffer (1×PBS, pH 7.4, 0.1% Tween-20). An aliquot of 2.5 μL of the 10× working solution of the FAM-labeled peptides was then added to 22.5 μL of the SORT1 dilution series and pipetted to mix in a V-bottom 96-well plate. A negative control with no target protein was also prepared to assess baseline polarization of the FAM-labeled peptides. […] The data was then fitted to a One Site-Specific Binding curve in GraphPad to calculate the KD."}},
  "note": "Where a SMILES comes first, the peptide text is derived from it.",
  "data": [
    {"molecule": "CCCC[C@@H]1NC(=O)[C@H](CCCNC(=N)N)NC(=O)[C@H](CCCCNC(=O)CN(C)C(=O)CN(C)C(=O)CN(C)C(=O)CN(C)C(=O)CCNC(=O)CCCC(=O)N[C@H](C(=O)N[C@@H](CCCNC(N)=O)C(=O)Nc2ccc(COC(=O)N(C)[C@H](C(=O)N[C@H](C(=O)N(C)[C@@H]([C@@H](C)CC)[C@@H](CC(=O)N3CCC[C@H]3[C@H](OC)[C@@H](C)C(=O)N[C@H](C)[C@@H](O)c3ccccc3)OC)C(C)C)C(C)C)cc2)C(C)C)NC(=O)[C@H](CC(N)=O)NC(=O)[C@H](CCC(=O)O)NC(=O)[C@@H](NC(=O)[C@H](Cc2c[nH]c3ccccc23)NC(=O)[C@H](CCCNC(=N)N)NC(C)=O)CSSC[C@@H](C(=O)N[C@@H](CCCNC(=N)N)C(=O)N[C@@H](CCC(N)=O)C(=O)N[C@H](C(=O)N[C@@H](CC(C)(C)C)C(=O)O)C(C)(C)C)NC(=O)[C@H]([C@@H](C)O)NC(=O)[C@H](Cc2ccccc2)NC1=O", "note": "[Arb_cyclic_G23-PDC]", "values": [
      {"measurement": "half-life", "setting": "[1]", "result": 57.4, "unit": "min"},
      {"measurement": "tumor growth inhibited relative to vehicle", "setting": "MDA-MB-231 xenograft; 3 mg/kg i.v. QW×4, day 22", "result": 68, "unit": "%"},
      {"measurement": "body weight loss (Example 8)", "setting": "MDA-MB-231 xenograft; PDCs 3 mg/kg, free MMAE at molar equivalency (0.6 mg/kg)", "result": "body weight loss tracked each other"},
      {"measurement": "blood neutrophil counts compared to vehicle or MMAE treatment", "setting": "[2]", "result": "reduced neutrophil counts"}
    ]},
    {"molecule": "CC(C)C[C@H](NC(=O)[C@H](C)NC(=O)[C@@H]1CCCN1C(=O)[C@H](CC(=O)O)NC(=O)[C@H](CCCNC(=N)N)NC(=O)[C@H](CC(C)C)NC(=O)[C@@H]1CCCN1C(=O)[C@H](C)NC(=O)[C@H](CC(=O)O)NC(=O)[C@H](Cc1c[nH]c2ccccc12)NC(=O)[C@H](CCCNC(=N)N)NC(=O)[C@@H]1CCCN1C(=O)[C@H](C)N)C(=O)N[C@@H](CCCNC(=N)N)C(=O)N[C@@H](CCC(N)=O)C(=O)N[C@H](C(=O)N[C@@H](CC1CCC1)C(=O)O)C(C)(C)C", "note": "[SORT1 peptide 2]", "values": [
      {"measurement": "Cyno Ka Kd", "setting": "Cyno SORT1", "result": 152, "unit": "pM"}
    ]},
    {"molecule": "CCCC[C@@H]1NC(=O)[C@H](CCCNC(=N)N)NC(=O)[C@H](CCCCN)NC(=O)[C@H](CC(N)=O)NC(=O)[C@H](CCC(=O)O)NC(=O)[C@@H](NC(=O)[C@H](Cc2c[nH]c3ccccc23)NC(=O)[C@H](CCCNC(=N)N)NC(C)=O)CSSC[C@@H](C(=O)N[C@@H](CCCNC(=N)N)C(=O)N[C@@H](CCC(N)=O)C(=O)N[C@H](C(=O)N[C@@H](CC(C)(C)C)C(=O)O)C(C)(C)C)NC(=O)[C@H]([C@@H](C)O)NC(=O)[C@H](Cc2ccccc2)NC1=O", "note": "[SORT1 peptide 3] (HELM PEPTIDE1{[ac].R.W.C.E.N.K.R.[Nle].F.T.C.R.Q.[CC(C)(C)[C@H](N[*:1])C(=O)[*:2]].[CC(C)(C)C[C@H](N[*:1])C(=O)O]}$PEPTIDE1,PEPTIDE1,4:R3-12:R3$$$V2.0; N-terminus and C-terminus assumed)", "values": [
      {"measurement": "Cyno Ka Kd", "setting": "Cyno SORT1", "result": 191, "unit": "pM"}
    ]},
    {"molecule": "Ac-C(bAla)(Sar)(Sar)(Sar)(Sar)APRWDAPLRDPALRQ(B13)(G48) (CXXXXXAPRWDAPLRDPALRQXX; N-methyl; non-natural residues; cyclised or stapled) [Peptide 2-GAPDH6-SPDP]", "values": [
      {"measurement": "GAPDH mRNA % knockdown compared to untreated cells", "setting": "GAPDH mRNA [3]; HEK293 + CQ", "result": 80, "unit": "%"},
      {"measurement": "GAPDH mRNA % knockdown compared to untreated cells", "setting": "GAPDH mRNA [3]; HEK293 − CQ (chloroquine)", "result": 0, "unit": "%"},
      {"measurement": "GAPDH mRNA % knockdown compared to untreated cells", "setting": "GAPDH mRNA [4]; Neuro2a + CQ", "result": 0, "unit": "%"},
      {"measurement": "GAPDH mRNA % knockdown compared to untreated cells", "setting": "GAPDH mRNA [4]; Neuro2a − CQ", "result": 3, "unit": "%"}
    ]},
    {"molecule": "B1", "values": [
      {"measurement": "binding result", "setting": "[5]", "result": "no binding"}
    ]}
  ]
}
